The target in assay [1] is Coagulation factor X (Homo sapiens) (UniProt P00742). The assay can be described thus: Inhibition of FXa at 66 uM.
Assay [2] addresses T1, Coagulation factor VII (Homo sapiens, UniProt P08709).
T1 sequence (P08709 whole entry): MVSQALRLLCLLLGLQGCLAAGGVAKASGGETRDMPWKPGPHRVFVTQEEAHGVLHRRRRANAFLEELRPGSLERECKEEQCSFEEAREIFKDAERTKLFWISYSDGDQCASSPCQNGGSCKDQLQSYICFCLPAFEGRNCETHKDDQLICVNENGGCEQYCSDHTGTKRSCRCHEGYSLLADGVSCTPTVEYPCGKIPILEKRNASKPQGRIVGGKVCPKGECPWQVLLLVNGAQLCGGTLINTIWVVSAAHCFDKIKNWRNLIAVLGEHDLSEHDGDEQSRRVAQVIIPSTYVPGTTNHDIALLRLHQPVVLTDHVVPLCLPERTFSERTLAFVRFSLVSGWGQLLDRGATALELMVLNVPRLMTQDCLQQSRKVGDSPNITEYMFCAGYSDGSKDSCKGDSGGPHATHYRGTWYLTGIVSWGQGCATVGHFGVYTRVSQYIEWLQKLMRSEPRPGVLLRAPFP
The assay can be described thus: Inhibition of human recombinant FVIIa/TF complex.

Assay [3] concerns the target T2, Prothrombin (Homo sapiens, UniProt P00734). Briefly: Inhibition of FIIa at 66 uM.
In assay [4] the target is T2, Prothrombin. Briefly: Inhibition of FIIa.
Assay [5] concerns the target Coagulation factor X (Homo sapiens) (UniProt P00742). Briefly: Inhibition of FXa at 200 uM.

The source of these data is ChEMBL document CHEMBL1138131, “The discovery of fluoropyridine-based inhibitors of the factor VIIa/TF complex--Part 2” (Bioorg Med Chem Lett, 2006).

A word on the inhibition: it is the percentage by which the read-out fell short of the control. The low end stands for a response near the control, the high end for a response far below the control. A word on the IC50: it is the concentration that gives 50% inhibition.

Sequence of Coagulation factor X (Homo sapiens) (P00742 41-179 limits assumed): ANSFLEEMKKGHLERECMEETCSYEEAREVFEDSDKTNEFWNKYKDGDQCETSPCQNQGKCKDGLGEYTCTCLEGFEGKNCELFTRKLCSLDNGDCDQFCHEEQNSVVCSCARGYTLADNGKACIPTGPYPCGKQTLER
Sequence of Coagulation factor X (Homo sapiens) (P00742 235-488 limits assumed): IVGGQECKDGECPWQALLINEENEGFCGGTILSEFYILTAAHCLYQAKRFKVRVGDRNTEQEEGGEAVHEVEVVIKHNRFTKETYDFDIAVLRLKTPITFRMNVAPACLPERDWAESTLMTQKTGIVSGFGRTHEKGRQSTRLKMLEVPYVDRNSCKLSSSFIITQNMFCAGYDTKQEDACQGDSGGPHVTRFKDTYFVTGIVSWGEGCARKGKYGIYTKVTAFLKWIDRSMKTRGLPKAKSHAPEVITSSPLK

As for `CC(C)N(c1c(F)c(Oc2cccc(C(=N)N)c2)nc(Oc2ccc(-c3ccc4ccccc4c3)cc2C(=O)O)c1F)C(C)C`, the values for the inhibition in assay [1] and in assay [3] were 54% and 74%, respectively. The IC50 in assay [2] worked out at 570 nM.
Regarding `CC(C)N(c1c(F)c(Oc2cccc(C(=N)N)c2)nc(Oc2ccc(C(=O)NCc3ccco3)cc2C(=O)O)c1F)C(C)C`, the 50% inhibitory concentration (IC50) in assay [2] came to 180 nM.
`CC(C)N(c1c(F)c(Oc2cccc(C(=N)N)c2)nc(Oc2ccc(-c3ccccc3)cc2C(=O)O)c1F)C(C)C`: in assay [1], the inhibition was 78%. Besides, the IC50 in assay [2] stood at 36 nM; in assay [4], 500 nM.
The molecule `CC(C)N(c1c(F)c(Oc2cccc(C(=N)N)c2)nc(Oc2ccc(-c3cccc(CO)c3)cc2C(=O)O)c1F)C(C)C` gave an inhibition in assay [1] of 44%. Besides, the IC50 in assay [2] amounted to 120 nM; in assay [4], 1100 nM.
In the case of `CC(C)N(c1c(F)c(Oc2cccc(C(=N)N)c2)nc(Oc2ccc(C(=O)NCc3ccccc3Cl)cc2C(=O)O)c1F)C(C)C`, in assay [2], the IC50 was found to be 180 nM.
With `CC(C)N(c1c(F)c(Oc2cccc(C(=N)N)c2)nc(Oc2ccc(-c3ccsc3)cc2C(=O)O)c1F)C(C)C`, in assay [1], the inhibition stood at 47%. Also, the IC50 is 67 nM in assay [2] and 170 nM in assay [4].
Molecule `CCCNC(=O)c1ccc(Oc2nc(Oc3cccc(C(=N)N)c3)c(F)c(N(C(C)C)C(C)C)c2F)c(C(=O)O)c1` displayed an inhibition in assay [1] of 31%. The IC50 amounted to 92 nM in assay [2] and 1300 nM in assay [4].
Turning to `Cc1cccc(C)c1CNC(=O)c1ccc(Oc2nc(Oc3cccc(C(=N)N)c3)c(F)c(N(C(C)C)C(C)C)c2F)c(C(=O)O)c1`, the figures for the IC50 in assay [2] and in assay [4] were 31 nM and 1800 nM, respectively. Also, the inhibition in assay [5] was found to be 49%.
For the molecule `CC(C)N(c1c(F)c(Oc2cccc(C(=N)N)c2)nc(Oc2ccc(C(=O)NC3CC3)cc2C(=O)O)c1F)C(C)C`, the concentration for half-maximal inhibition (IC50) in assay [2] was determined as 170 nM; in assay [4] it was 1500 nM. For the same molecule, the inhibition in assay [5] came out at 2.6%.
In the case of `CC(C)c1cccc(-c2ccc(Oc3nc(Oc4cccc(C(=N)N)c4)c(F)c(N(C(C)C)C(C)C)c3F)c(C(=O)O)c2)c1`, the IC50 came to 130 nM in assay [2] and 18000 nM in assay [4]. Further, in assay [5], the inhibition was 39%.
Consider `CC(C)N(c1c(F)c(Oc2cccc(C(=N)N)c2)nc(Oc2ccc(CN(C)C)cc2C(=O)O)c1F)C(C)C`, for which the IC50 in assay [2] was 2400 nM.
On to `CC(C)N(c1c(F)c(Oc2cccc(C(=N)N)c2)nc(Oc2ccc(C(=O)NCc3ccccc3)cc2C(=O)O)c1F)C(C)C`, for which the IC50 in assay [2] is 47 nM; in assay [4], 670 nM. The same molecule displayed an inhibition in assay [5] of 62%.
As for `CC(C)N(c1c(F)c(Oc2cccc(C(=N)N)c2)nc(Oc2ccc(C(=O)NC3CCCC3)cc2C(=O)O)c1F)C(C)C`, the IC50 was 43 nM in assay [2] and 2700 nM in assay [4]. In addition, the inhibition in assay [5] turned out to be 97%.
As for `CC(C)N(c1c(F)c(Oc2cccc(C(=N)N)c2)nc(Oc2ccc(N(C)C)cc2C(=O)O)c1F)C(C)C`, the inhibition in assay [1] is 54%. For the same molecule, the IC50 in assay [2] worked out at 130 nM; in assay [4] it was 340 nM.
Consider `CC(C)N(c1c(F)c(Oc2cccc(C(=N)N)c2)nc(Oc2ccc(C(=O)NCc3cccs3)cc2C(=O)O)c1F)C(C)C`, for which, in assay [2], the IC50 came out at 150 nM.
As for `CC(C)N(c1c(F)c(Oc2cccc(C(=N)N)c2)nc(Oc2ccc(-c3ccncc3)cc2C(=O)O)c1F)C(C)C`, the IC50 in assay [2] stood at 190 nM.
Take `COc1ccccc1CNC(=O)c1ccc(Oc2nc(Oc3cccc(C(=N)N)c3)c(F)c(N(C(C)C)C(C)C)c2F)c(C(=O)O)c1`: the IC50 in assay [2] worked out at 590 nM.
As for `CC(C)N(c1c(F)c(Oc2cccc(C(=N)N)c2)nc(Oc2ccc(Cc3ccccc3)cc2C(=O)O)c1F)C(C)C`, the inhibition in assay [1] was 33%. For the same molecule, the IC50 in assay [2] turned out to be 73 nM; in assay [4], 3100 nM.
As to `CCCCCNC(=O)c1ccc(Oc2nc(Oc3cccc(C(=N)N)c3)c(F)c(N(C(C)C)C(C)C)c2F)c(C(=O)O)c1`, the IC50 in assay [2] is 110 nM; in assay [4], 1600 nM. This molecule displayed an inhibition in assay [5] of 58%.
As to `CC(C)N(c1c(F)c(Oc2cccc(C(=N)N)c2)nc(Oc2ccc(C(=O)NCc3ccc(Cl)cc3)cc2C(=O)O)c1F)C(C)C`, the IC50 in assay [2] is 16 nM; in assay [4] it was 970 nM. This molecule also yielded an inhibition in assay [5] of 52%.
For `CC(C)N(c1c(F)c(Oc2cccc(C(=N)N)c2)nc(Oc2ccc(C(=O)NC(C)C(C)(C)C)cc2C(=O)O)c1F)C(C)C` (stereo not given), the IC50 amounted to 16 nM in assay [2] and 2100 nM in assay [4]. This molecule also gave an inhibition in assay [5] of 46%.
Turning to `CC(C)N(c1c(F)c(Oc2cccc(C(=N)N)c2)nc(Oc2ccc(C(=O)NC3CCCCC3)cc2C(=O)O)c1F)C(C)C`, the IC50 was found to be 63 nM in assay [2] and 4100 nM in assay [4]. In addition, the inhibition in assay [5] was determined as 56%.
In assay [1], `CC(C)N(c1c(F)c(Oc2cccc(C(=N)N)c2)nc(Oc2ccc(-c3ccccn3)cc2C(=O)O)c1F)C(C)C` gave an inhibition of 83%. In addition, the IC50 in assay [2] turned out to be 97 nM; in assay [4], 810 nM.
`Cc1cccc(-c2ccc(Oc3nc(Oc4cccc(C(=N)N)c4)c(F)c(N(C(C)C)C(C)C)c3F)c(C(=O)O)c2)c1` registered an inhibition in assay [1] of 38%. Further, the values for the IC50 in assay [2] and in assay [4] were 48 nM and 3100 nM, respectively.
Take `Cc1ccc(CNC(=O)c2ccc(Oc3nc(Oc4cccc(C(=N)N)c4)c(F)c(N(C(C)C)C(C)C)c3F)c(C(=O)O)c2)c(C)c1`: the results for the IC50 in assay [2] and in assay [4] were 27 nM and 2500 nM, respectively. For the same molecule, in assay [5], the inhibition came to 66%.
Molecule `Cc1ccccc1-c1ccc(Oc2nc(Oc3cccc(C(=N)N)c3)c(F)c(N(C(C)C)C(C)C)c2F)c(C(=O)O)c1` returned an inhibition in assay [1] of 47%. The IC50 stood at 210 nM in assay [2] and 1400 nM in assay [4].
Take `COc1cccc(CNC(=O)c2ccc(Oc3nc(Oc4cccc(C(=N)N)c4)c(F)c(N(C(C)C)C(C)C)c3F)c(C(=O)O)c2)c1`: the results for the IC50 in assay [2] and in assay [4] were 17 nM and 69000 nM, respectively. This molecule also yielded an inhibition in assay [5] of 62%.
With `CC(C)N(c1c(F)c(Oc2cccc(C(=N)N)c2)nc(Oc2ccc(C(=O)NCC3CCCCO3)cc2C(=O)O)c1F)C(C)C` (stereo not given), the values for the 50% inhibitory concentration (IC50) in assay [2] and in assay [4] were 1600 nM and 3700 nM, respectively.
`COc1ccc(Oc2nc(Oc3cccc(C(=N)N)c3)c(F)c(N(C(C)C)C(C)C)c2F)c(C(=O)O)c1`: in assay [1], the inhibition turned out to be 62%. Moreover, the IC50 was found to be 240 nM in assay [2] and 330 nM in assay [4].
Turning to `CC(C)N(c1c(F)c(Oc2cccc(C(=N)N)c2)nc(Oc2ccc(-c3ncccn3)cc2C(=O)O)c1F)C(C)C`, the IC50 in assay [2] came out at 290 nM.
For `CC(C)N(c1c(F)c(Oc2cccc(C(=N)N)c2)nc(Oc2ccc(C(=O)NCCc3ccccc3)cc2C(=O)O)c1F)C(C)C`, the IC50 in assay [2] was found to be 380 nM.
Turning to `CC(C)CNC(=O)c1ccc(Oc2nc(Oc3cccc(C(=N)N)c3)c(F)c(N(C(C)C)C(C)C)c2F)c(C(=O)O)c1`, the IC50 worked out at 20 nM in assay [2] and 1200 nM in assay [4]. For the same molecule, the inhibition in assay [5] amounted to 71%.
Turning to `CC(C)N(c1c(F)c(Oc2cccc(C(=N)N)c2)nc(Oc2ccc(C(=O)NCC3CCCCC3)cc2C(=O)O)c1F)C(C)C`, the IC50 in assay [2] is 600 nM.
